Experimental data reported in patent US20260070945A1, “MACROCYCLIC IMMUNOMODULATORS” (Bristol-Myers Squibb Company, priority 2022, published 2026).
*1 amine or outer side, *2 acyl side, *3 side chain or, on linkers, in order; H or OH if unused. Where a SMILES comes first, the peptide text is derived from it. Bridges are numbered along the chain shown (N, C = ends). [ ]: non-standard residue; d: D form. The star is where a group is joined. ξ: configuration not given here. Phe(3-CF3) = N[C@@H](Cc1cccc(C(F)(F)F)c1)C(=O)O; Phe(4-COOH) = N[C@@H](Cc1ccc(C(=O)O)cc1)C(=O)O; Bip = N[C@@H](Cc1ccc(-c2ccccc2)cc1)C(=O)O; NH(CH2)14COOH = O=C(O)CCCCCCCCCCCCCCN*; Phe(3-Me) = Cc1cccc(C[C@H](N)C(=O)O)c1; Phe(4-F) = N[C@@H](Cc1ccc(F)cc1)C(=O)O; γGlu = O=C(O)[C@H](CCC(=O)[*:2])N[*:1]; NH(CH2)12COOH = O=C(O)CCCCCCCCCCCCN*; Val(3-OH) = CC(C)(O)[C@H](N)C(=O)O; aIle = CC[C@@H](C)[C@H](N)C(=O)O; 4Pal = N[C@@H](Cc1ccncc1)C(=O)O; X1 = O=C(CN1CCN([*:1])CC1)[*:2]; Cha = N[C@@H](CC1CCCCC1)C(=O)O; Cit = NC(=O)NCCC[C@H](N)C(=O)O; Ile(3ξ) = CCC(C)[C@H](N)C(=O)O; Thr(3ξ) = CC(O)[C@H](N)C(=O)O; Carboxymethyl = O=C(O)C*; NMeA = CN[C@@H](C)C(=O)O; Orn = NCCC[C@H](N)C(=O)O; Aun = NCCCCCCCCCCC(=O)O; Dab = NCC[C@H](N)C(=O)O; AEEA = NCCOCCOCC(=O)O

Biological target: T1, PD-1/PD-L1 interaction (PE-labeled human PD-L1-Ig binding to Jurkat cell line over-expressing human PD-1) (Homo sapiens, UniProt Q15116)
T1 construct: expressed in transfected cells; host or cells: Jurkat
Experiment: Jurkat-PD-1 Cell Binding High-Content Screening Assay (CBA)
Details: Jurkat-hPD-1 cells, PE-labeled PD-L1-Ig 20 nM final; read-out: Jurkat HPD1 PDL1 IC50
Procedure, shortened: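 In this imaging assay, cells in 10% FCS medium see compound for 2 h at 37 °C and then labeled ligand at 20 nM final for 1 h. Paraformaldehyde fixation, Hoechst 33342 staining and dPBS washes precede image capture.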

T1 sequence (Q15116 25-288): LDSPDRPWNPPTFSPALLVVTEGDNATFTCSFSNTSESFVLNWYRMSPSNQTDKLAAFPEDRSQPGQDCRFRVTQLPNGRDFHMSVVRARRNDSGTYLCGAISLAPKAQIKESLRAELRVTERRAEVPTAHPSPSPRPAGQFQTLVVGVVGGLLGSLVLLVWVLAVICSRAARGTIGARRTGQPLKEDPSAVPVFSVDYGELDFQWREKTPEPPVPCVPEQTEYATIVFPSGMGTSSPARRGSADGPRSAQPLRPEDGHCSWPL

| IC50 | Structure (SMILES) |
| --- | --- |
| 24.3 nM | CC[C@@H](C)[C@@H]1NC(=O)[C@H](Cc2ccc(-c3ccccc3)cc2)NC(=O)[C@H](C(C)C)NC(=O)[C@H](Cc2c[nH]c3ccccc23)NC(=O)[C@H](CC(=O)O)NC(=O)[C@H](Cc2ccc(OCC(=O)O)cc2)NC(=O)[C@H](Cc2ccncc2)NC(=O)CSC[C@@H](C(=O)N[C@H](CC(N)=O)C(=O)NCCOCCOCC(=O)N[C@@H](CCC(=O)NCCOCCOCC(=O)N[C@@H](CCC(=O)NCCOCCOCC(=O)N[C@@H](CCCN)C(=O)NCCCCCCCCCCC(=O)O)C(=O)O)C(=O)O)NC(=O)[C@H](CO)NC(=O)[C@H](C(C)C)NC(=O)[C@H](CC2CCCCC2)NC(=O)[C@H](CC(N)=O)NC(=O)[C@@H](CC(C)C)NC(=O)[C@H](C)N(C)C1=O [Example 2017] ({CH2CO}-[4Pal]Y(Carboxymethyl)DWV[Bip][aIle][NMeA][dL]N[Cha]VSC[dN][AEEA][γGlu][AEEA][γGlu][AEEA][Orn][Aun]-OH; thioether N-14) |
| 13.8 nM | CC(C)C[C@@H]1NC(=O)[C@H](Cc2c[nH]c3ccccc23)NC(=O)[C@H](CC(=O)O)NC(=O)[C@H](Cc2ccc(C(=O)O)cc2)NC(=O)[C@H](Cc2ccc(OCC(=O)O)cc2)NC(=O)CSC[C@@H](C(=O)NCC(=O)N[C@@H](CC(=O)O)C(=O)NCCCCCCCCCCC(=O)O)NC(=O)[C@H](CO)NC(=O)[C@H](C(C)C)NC(=O)[C@H](CC2CCCCC2)NC(=O)[C@H](CCN)NC(=O)[C@@H](CC(C)C)NC(=O)[C@H](C)N(C)C(=O)[C@H](C(C)C)NC(=O)[C@H](Cc2ccc(-c3ccccc3)cc2)NC1=O [Example 1041] ({CH2CO}-Y(Carboxymethyl)[Phe(4-COOH)]DWL[Bip]V[NMeA][dL][Dab][Cha]VSCGD[Aun]-OH; thioether N-14) |
| 311 nM | Cc1cccc(C[C@@H]2NC(=O)[C@H](CC(=O)O)NC(=O)[C@H](Cc3ccc(OCC(=O)O)cc3)NC(=O)[C@H]([C@@H](C)O)NC(=O)CSC[C@@H](C(=O)N[C@H](CC(N)=O)C(=O)NCCOCCOCC(=O)NCCCCCCCCCCC(=O)O)NC(=O)[C@H](CCC(=O)O)NC(=O)[C@H](C(C)(C)O)NC(=O)[C@H](CC3CCCCC3)NC(=O)[C@H](CCN)NC(=O)[C@@H](CC(C)C)NC(=O)[C@H](C)N(C)C(=O)[C@H](Cc3ccc(OCC(=O)O)cc3)NC(=O)[C@H](Cc3ccc(-c4ccccc4)cc3)NC(=O)[C@H](Cc3ccc(OCC(=O)O)cc3)NC2=O)c1 [Example 1416] ({CH2CO}-TY(Carboxymethyl)D[Phe(3-Me)]Y(Carboxymethyl)[Bip]Y(Carboxymethyl)[NMeA][dL][Dab][Cha][Val(3-OH)]EC[dN][AEEA][Aun]-OH; thioether N-14) |
| 48 nM | CC(C)C[C@@H]1NC(=O)[C@H](Cc2c[nH]c3ccccc23)NC(=O)[C@H](CC(=O)O)NC(=O)[C@H](Cc2ccc(C(=O)O)cc2)NC(=O)[C@H](Cc2ccc(OCC(=O)O)cc2)NC(=O)CSC[C@@H](C(=O)NCCOCCOCC(=O)NCCCCCCCCCCC(=O)O)NC(=O)[C@H](CCCNC(N)=O)NC(=O)[C@H](C(C)C)NC(=O)[C@H](CC2CCCCC2)NC(=O)[C@H](CCN)NC(=O)[C@@H](CC(C)C)NC(=O)[C@H](C)N(C)C(=O)[C@H](Cc2ccc(O)cc2)NC(=O)[C@H](Cc2ccc(-c3ccccc3)cc2)NC1=O [Example 1101] ({CH2CO}-Y(Carboxymethyl)[Phe(4-COOH)]DWL[Bip]Y[NMeA][dL][Dab][Cha]V[Cit]C[AEEA][Aun]-OH; thioether N-14) |
| 25.6 nM | Cc1cccc(C[C@@H]2NC(=O)[C@H](CC(=O)O)NC(=O)[C@H](Cc3ccc(C(=O)O)cc3)NC(=O)[C@H](Cc3ccc(OCC(=O)O)cc3)NC(=O)CSC[C@@H](C(=O)N[C@@H](CCN)C(=O)NCCCCCCCCCCC(=O)O)NC(=O)[C@H](C(C)O)NC(=O)[C@H](C(C)C)NC(=O)[C@H](CC3CCCCC3)NC(=O)[C@H](CCN)NC(=O)[C@@H](CC(C)C)NC(=O)[C@H](C)N(C)C(=O)[C@H](C(C)C)NC(=O)[C@H](Cc3ccc(-c4ccccc4)cc3)NC(=O)[C@H](CC(C)C)NC2=O)c1 (stereo partly drawn) [Example 2323] ({CH2CO}-Y(Carboxymethyl)[Phe(4-COOH)]D[Phe(3-Me)]L[Bip]V[NMeA][dL][Dab][Cha]V[Thr(3ξ)]C[Dab][Aun]-OH; thioether N-14) |
| 13.9 nM | Cc1cccc(C[C@@H]2NC(=O)[C@H](CC(=O)O)NC(=O)[C@H](Cc3ccc(C(=O)O)cc3)NC(=O)[C@H](Cc3ccc(OCC(=O)O)cc3)NC(=O)CSC[C@@H](C(=O)NCCCCCCCCCCC(=O)O)NC(=O)[C@H](CCCNC(N)=O)NC(=O)[C@H](C(C)C)NC(=O)[C@H](CC3CCCCC3)NC(=O)[C@H](CCN)NC(=O)[C@@H](CC(C)C)NC(=O)[C@H](C)N(C)C(=O)[C@H](C(C)C)NC(=O)[C@H](Cc3ccc(-c4ccccc4)cc3)NC(=O)[C@H](C(C)C)NC2=O)c1 [Example 2216] ({CH2CO}-Y(Carboxymethyl)[Phe(4-COOH)]D[Phe(3-Me)]V[Bip]V[NMeA][dL][Dab][Cha]V[Cit]C[Aun]-OH; thioether N-14) |
| 202 nM | CC(C)C[C@@H]1NC(=O)[C@H](Cc2c[nH]c3ccccc23)NC(=O)[C@H](CC(=O)O)NC(=O)[C@H](Cc2ccncc2)NC(=O)[C@H](Cc2ccc(OCC(=O)O)cc2)NC(=O)CSC[C@@H](C(=O)N2CCN(CC(=O)NCCCCCCCCCCC(=O)O)CC2)NC(=O)[C@H](C(C)O)NC(=O)[C@H](C(C)C)NC(=O)[C@H](CC2CCCCC2)NC(=O)[C@H](CCN)NC(=O)[C@@H](CC(C)C)NC(=O)[C@H](C)N(C)C(=O)[C@H](C(C)C)NC(=O)[C@H](Cc2ccc(-c3ccccc3)cc2)NC1=O (stereo partly drawn) [Example 1219] ({CH2CO}-Y(Carboxymethyl)[4Pal]DWL[Bip]V[NMeA][dL][Dab][Cha]V[Thr(3ξ)]C[X1][Aun]-OH; thioether N-14) |
| 11.2 nM | COC[C@@H]1NC(=O)CSC[C@@H](C(=O)N[C@@H](CCN)C(=O)NCCCCCCCCCCCCC(=O)O)NC(=O)[C@H](CC(=O)O)NC(=O)[C@H](C(C)(C)O)NC(=O)[C@H](CC2CCCCC2)NC(=O)[C@H](CCN)NC(=O)[C@@H](CC(C)C)NC(=O)[C@H](C)N(C)C(=O)[C@H](CCCNC(N)=O)NC(=O)[C@H](Cc2ccc(-c3ccccc3)cc2)NC(=O)[C@H](Cc2ccc(C(=O)O)cc2)NC(=O)[C@H](Cc2cccc(C(F)(F)F)c2)NC(=O)[C@H](CC(=O)O)NC(=O)[C@H](Cc2ccc(OCC(=O)O)cc2)NC1=O [Example 1138] ({CH2CO}-S(Me)Y(Carboxymethyl)D[Phe(3-CF3)][Phe(4-COOH)][Bip][Cit][NMeA][dL][Dab][Cha][Val(3-OH)]DC[Dab]-{NH(CH2)12COOH}; thioether N-14) |

Same assay, conditions: PE-labeled PD-L1-Ig 20 nM final, Jurkat-hPD-1 cells; read-out: Jurkat HPD1 PDL1 IC50

| IC50 | Structure (SMILES) |
| --- | --- |
| 13.1 nM | Cc1cccc(C[C@@H]2NC(=O)[C@H](CC(=O)O)NC(=O)[C@H](Cc3ccc(C(=O)O)cc3)NC(=O)[C@H](CCN)NC(=O)CSC[C@@H](C(=O)N[C@@H](CCN)C(=O)NCCOCCOCC(=O)NCCOCCOCC(=O)NCCCCCCCCCCC(=O)O)NC(=O)[C@H](CCC(=O)O)NC(=O)[C@H](C(C)(C)O)NC(=O)[C@H](CC3CCCCC3)NC(=O)[C@H](CCN)NC(=O)[C@@H](CC(C)C)NC(=O)[C@H](C)N(C)C(=O)[C@H](Cc3ccc(C(=O)O)cc3)NC(=O)[C@H](Cc3ccc(-c4ccccc4)cc3)NC(=O)[C@H](Cc3ccc(C(=O)O)cc3)NC2=O)c1 [Example 2519] ({CH2CO}-[Dab][Phe(4-COOH)]D[Phe(3-Me)][Phe(4-COOH)][Bip][Phe(4-COOH)][NMeA][dL][Dab][Cha][Val(3-OH)]EC[Dab][AEEA][AEEA][Aun]-OH; thioether N-14) |
| 105 nM | CCC(C)[C@@H]1NC(=O)[C@H](Cc2ccc(-c3ccccc3)cc2)NC(=O)[C@H](C(C)C)NC(=O)[C@H](Cc2c[nH]c3ccccc23)NC(=O)[C@H](CC(=O)O)NC(=O)[C@H](Cc2ccc(C(=O)O)cc2)NC(=O)[C@H](Cc2cnc[nH]2)NC(=O)CSC[C@@H](C(=O)N[C@@H](CCN)C(=O)NCCOCCOCC(=O)N[C@@H](CCC(=O)NCCOCCOCC(=O)NCCCCCCCCCCCCCCC(=O)O)C(=O)O)NC(=O)[C@H](CCC(=O)O)NC(=O)[C@H](C(C)(C)O)NC(=O)[C@H](CC2CCCCC2)NC(=O)[C@H](CCN)NC(=O)[C@@H](CC(C)C)NC(=O)[C@H](C)N(C)C1=O (stereo partly drawn) [Example 2635] ({CH2CO}-H[Phe(4-COOH)]DWV[Bip][Ile(3ξ)][NMeA][dL][Dab][Cha][Val(3-OH)]EC[Dab][AEEA][γGlu][AEEA]-{NH(CH2)14COOH}; thioether N-14) |
| 19.6 nM | Cc1cccc(C[C@@H]2NC(=O)[C@H](CC(=O)O)NC(=O)[C@H](Cc3ccc(C(=O)O)cc3)NC(=O)[C@H](Cc3ccc(F)cc3)NC(=O)CSC[C@@H](C(=O)N[C@@H](CCN)C(=O)NCCOCCOCC(=O)NCCCCCCCCCCC(=O)O)NC(=O)[C@H](CCC(=O)O)NC(=O)[C@H](C(C)C)NC(=O)[C@H](CC3CCCCC3)NC(=O)[C@H](CCN)NC(=O)[C@@H](CC(C)C)NC(=O)[C@H](C)N(C)C(=O)[C@H](Cc3ccc(C(=O)O)cc3)NC(=O)[C@H](Cc3ccc(-c4ccccc4)cc3)NC(=O)[C@H](Cc3ccc(C(=O)O)cc3)NC2=O)c1 [Example 2548] ({CH2CO}-[Phe(4-F)][Phe(4-COOH)]D[Phe(3-Me)][Phe(4-COOH)][Bip][Phe(4-COOH)][NMeA][dL][Dab][Cha]VEC[Dab][AEEA][Aun]-OH; thioether N-14) |
| 14.9 nM | Cc1cccc(C[C@@H]2NC(=O)[C@H](CC(=O)O)NC(=O)[C@H](Cc3ccc(C(=O)O)cc3)NC(=O)[C@H](C(C)O)NC(=O)CSC[C@@H](C(=O)N[C@@H](CCN)C(=O)NCCOCCOCC(=O)NCCCCCCCCCCC(=O)O)NC(=O)[C@H](CCC(=O)O)NC(=O)[C@H](C(C)C)NC(=O)[C@H](CC3CCCCC3)NC(=O)[C@H](CCN)NC(=O)[C@@H](CC(C)C)NC(=O)[C@H](C)N(C)C(=O)[C@H](Cc3ccc(C(=O)O)cc3)NC(=O)[C@H](Cc3ccc(-c4ccccc4)cc3)NC(=O)[C@H](Cc3ccc(C(=O)O)cc3)NC2=O)c1 (stereo partly drawn) [Example 2547] ({CH2CO}-[Thr(3ξ)][Phe(4-COOH)]D[Phe(3-Me)][Phe(4-COOH)][Bip][Phe(4-COOH)][NMeA][dL][Dab][Cha]VEC[Dab][AEEA][Aun]-OH; thioether N-14) |
